# Measurements reported in ChEMBL document CHEMBL1201862, “PubChem BioAssay data set” (2004).
#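 Interpolation was linear, between the two tested concentrations surrounding the appropriate level; five concentrations were tested over 48 hours in 96-well plates. The concentration for 50% growth inhibition is given as GI50.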 Active and inactive are the calls of the source. No stated cut-off is given here; in the data, active = GI50 up to about 1.1 µM and inactive = higher.
# Tests used:
# Assay in all cases: NCI tumour cell line growth inhibition, 48 h
# A549 = test system: A549
# HCC 2998 = test system: HCC 2998
# HCT-116 = test system: HCT-116
# HOP-62 = test system: HOP-62
# HOP-92 = test system: HOP-92
# K562 = test system: K562
# MCF7 = test system: MCF7
# MOLT-4 = test system: MOLT-4
# NCI-H23 = test system: NCI-H23
# OVCAR-3 = test system: OVCAR-3
# OVCAR-5 = test system: OVCAR-5
# SF-539 = test system: SF-539
# SK-MEL-28 = test system: SK-MEL-28
# SK-MEL-2 = test system: SK-MEL-2
# SN12C = test system: SN12C
# SNB-19 = test system: SNB-19
# SW-620 = test system: SW-620
# TK-10 = test system: TK-10
# UACC-62 = test system: UACC-62
Compound,GI50 (A549),GI50 (HCC 2998),GI50 (HCT-116),GI50 (HOP-62),GI50 (HOP-92),GI50 (K562),GI50 (MCF7),GI50 (MOLT-4),GI50 (NCI-H23),GI50 (OVCAR-3),GI50 (OVCAR-5),GI50 (SF-539),GI50 (SK-MEL-28),GI50 (SK-MEL-2),GI50 (SN12C),GI50 (SNB-19),GI50 (SW-620),GI50 (TK-10),GI50 (UACC-62)
CCN(CC)CCN1c2ccccc2Sc2ccc3ccccc3c21,14.2 µM (inactive),2.23 µM (inactive),10.8 µM (inactive),14.9 µM (inactive),3.37 µM (inactive),4.66 µM (inactive),9.27 µM (inactive),3.74 µM (inactive),15.5 µM (inactive),11.6 µM (inactive),9.1 µM (inactive),13.6 µM (inactive),7.46 µM (inactive),14.3 µM (inactive),11.7 µM (inactive),15.3 µM (inactive),11.4 µM (inactive),1.67 µM (inactive),8.57 µM (inactive)
O=C(NCCCCCCCN1CCCCCCC1)C(C1CCCCC1)C1CCCCC1,11.7 µM (inactive),2.76 µM (inactive),7.66 µM (inactive),3.97 µM (inactive),9.06 µM (inactive),2.77 µM (inactive),7.16 µM (inactive),1.19 µM (inactive),12.9 µM (inactive),6.07 µM (inactive),11 µM (inactive),11.2 µM (inactive),6.08 µM (inactive),9.08 µM (inactive),13.1 µM (inactive),14.3 µM (inactive),12.1 µM (inactive),12.9 µM (inactive),4.76 µM (inactive)
CC(C)(C)C1=CC(=C(c2ccc(-c3c4nc(c(-c5ccc(C(=C6C=C(C(C)(C)C)C(=O)C(C(C)(C)C)=C6)c6cc(C(C)(C)C)c(O)c(C(C)(C)C)c6)cc5)c5ccc([nH]5)c(-c5ccc(C(=C6C=C(C(C)(C)C)C(=O)C(C(C)(C)C)=C6)c6cc(C(C)(C)C)c(O)c(C(C)(C)C)c6)cc5)c5nc(c(-c6ccc(C(=C7C=C(C(C)(C)C)C(=O)C(C(C)(C)C)=C7)c7cc(C(C)(C)C)c(O)c(C(C)(C)C)c7)cc6)c6ccc3[nH]6)C=C5)C=C4)cc2)c2cc(C(C)(C)C)c(O)c(C(C)(C)C)c2)C=C(C(C)(C)C)C1=O,> 100 µM (inactive),> 100 µM (inactive),> 100 µM (inactive),> 100 µM (inactive),> 100 µM (inactive),> 100 µM (inactive),> 100 µM (inactive),> 100 µM (inactive),> 100 µM (inactive),> 100 µM (inactive),> 100 µM (inactive),> 100 µM (inactive),> 100 µM (inactive),> 100 µM (inactive),> 100 µM (inactive),> 100 µM (inactive),> 100 µM (inactive),> 100 µM (inactive),> 100 µM (inactive)
COC1(OC)C=CC2C1C1C=CC2C1(OC)OC (stereo unspecified),> 100 µM (inactive),> 100 µM (inactive),> 100 µM (inactive),> 100 µM (inactive),> 100 µM (inactive),> 100 µM (inactive),> 100 µM (inactive),> 100 µM (inactive),> 100 µM (inactive),> 100 µM (inactive),> 100 µM (inactive),> 100 µM (inactive),> 100 µM (inactive),> 100 µM (inactive),> 100 µM (inactive),> 100 µM (inactive),> 100 µM (inactive),> 100 µM (inactive),> 100 µM (inactive)
O=C(CNc1c(Cl)cccc1Cl)NC1C=Cc2ccc(S(=O)(=O)Nc3c(Cl)cccc3Cl)cc2C1=O (stereo unspecified),> 100 µM (inactive),67.5 µM (inactive),> 100 µM (inactive),41.4 µM (inactive),18.5 µM (inactive),> 100 µM (inactive),> 100 µM (inactive),> 100 µM (inactive),> 100 µM (inactive),42.5 µM (inactive),47.1 µM (inactive),> 100 µM (inactive),> 100 µM (inactive),56.8 µM (inactive),> 100 µM (inactive),> 100 µM (inactive),> 100 µM (inactive),> 100 µM (inactive),79.6 µM (inactive)
COc1cc(/C=C/c2cc(/C=C/c3ccc(O)c(OC)c3)oc(=O)c2)ccc1O,3.17 µM (inactive),1.81 µM (inactive),3.67 µM (inactive),4.92 µM (inactive),4.67 µM (inactive),4.43 µM (inactive),3.33 µM (inactive),3.48 µM (inactive),4.06 µM (inactive),2.36 µM (inactive),32.8 µM (inactive),6.79 µM (inactive),6.32 µM (inactive),3.98 µM (inactive),5.53 µM (inactive),7.57 µM (inactive),3.13 µM (inactive),3.78 µM (inactive),4.69 µM (inactive)
O=C1C[C@H](CCC(=O)OCc2ccccc2)NC(=O)C[C@H](CCC(=O)OCc2ccccc2)NC(=O)C[C@H](CCC(=O)OCc2ccccc2)N1,> 100 µM (inactive),> 100 µM (inactive),26.2 µM (inactive),16.2 µM (inactive),3.92 µM (inactive),> 100 µM (inactive),> 100 µM (inactive),> 100 µM (inactive),52.8 µM (inactive),97.1 µM (inactive),> 100 µM (inactive),5.64 µM (inactive),> 100 µM (inactive),17.1 µM (inactive),> 100 µM (inactive),9.98 µM (inactive),> 100 µM (inactive),6.24 µM (inactive),88.9 µM (inactive)
NC(=O)NNCc1c(-c2ccccc2)no[n+]1[O-],> 100 µM (inactive),> 100 µM (inactive),> 100 µM (inactive),> 100 µM (inactive),> 100 µM (inactive),> 100 µM (inactive),> 100 µM (inactive),> 100 µM (inactive),> 100 µM (inactive),> 100 µM (inactive),> 100 µM (inactive),> 100 µM (inactive),> 100 µM (inactive),> 100 µM (inactive),> 100 µM (inactive),> 100 µM (inactive),> 100 µM (inactive),> 100 µM (inactive),> 100 µM (inactive)
CCOC(=O)Cn1c(C)nc2nn(Cc3ccccc3)cc2c1=O,> 100 µM (inactive),> 100 µM (inactive),> 100 µM (inactive),> 100 µM (inactive),> 100 µM (inactive),> 100 µM (inactive),> 100 µM (inactive),> 100 µM (inactive),> 100 µM (inactive),> 100 µM (inactive),> 100 µM (inactive),> 100 µM (inactive),> 100 µM (inactive),> 100 µM (inactive),> 100 µM (inactive),> 100 µM (inactive),> 100 µM (inactive),> 100 µM (inactive),> 100 µM (inactive)
O=C(NC(Cc1c[nH]c2ccccc12)C(=O)Nc1ccc(Br)cc1)OCc1ccccc1 (stereo unspecified),9.16 µM (inactive),11 µM (inactive),9.82 µM (inactive),11 µM (inactive),5.18 µM (inactive),6.82 µM (inactive),10.4 µM (inactive),4.53 µM (inactive),11.8 µM (inactive),11.6 µM (inactive),17.2 µM (inactive),15.3 µM (inactive),14.3 µM (inactive),6.56 µM (inactive),9.46 µM (inactive),21.1 µM (inactive),16 µM (inactive),14.9 µM (inactive),10.1 µM (inactive)
O=S(=O)(O)c1cc(O)c(/N=N\C2S(=O)(=O)OCCOS2(=O)=O)c2ccccc12,> 100 µM (inactive),> 100 µM (inactive),> 100 µM (inactive),43.6 µM (inactive),> 100 µM (inactive),> 100 µM (inactive),> 100 µM (inactive),30.6 µM (inactive),> 100 µM (inactive),> 100 µM (inactive),> 100 µM (inactive),54.3 µM (inactive),> 100 µM (inactive),> 100 µM (inactive),> 100 µM (inactive),56.5 µM (inactive),> 100 µM (inactive),> 100 µM (inactive),91 µM (inactive)
CCCC(=O)Nc1cc(/C=C/C(=O)N2C[C@H]3C[C@@]34C2=CC(=O)c2[nH]cc(C)c24)n(C)c1,0.00395 µM (active),< 0.0025 µM (active),< 0.0025 µM (active),< 0.0025 µM (active),< 0.0025 µM (active),< 0.0025 µM (active),< 0.0025 µM (active),< 0.0025 µM (active),< 0.0025 µM (active),< 0.0025 µM (active),< 0.0025 µM (active),< 0.0025 µM (active),< 0.0025 µM (active),< 0.0025 µM (active),< 0.0025 µM (active),0.00593 µM (active),< 0.0025 µM (active),< 0.0025 µM (active),< 0.0025 µM (active)
COc1cc2c(cc1C)NC(=O)/C2=C/c1c(Cl)n(-c2ccccc2)c2ccccc12,7 µM (inactive),8.24 µM (inactive),13.4 µM (inactive),19.4 µM (inactive),23 µM (inactive),6.46 µM (inactive),10.2 µM (inactive),4.82 µM (inactive),16.4 µM (inactive),7.91 µM (inactive),29.5 µM (inactive),11.1 µM (inactive),21.8 µM (inactive),11.4 µM (inactive),11.2 µM (inactive),45.7 µM (inactive),13.9 µM (inactive),28.9 µM (inactive),19.3 µM (inactive)
COc1ccc(-c2cc(=O)c3c(OC)c(OC)c(OC)c(OC)c3o2)c(OC)c1,32.6 µM (inactive),18.8 µM (inactive),21.6 µM (inactive),26.7 µM (inactive),14 µM (inactive),48.4 µM (inactive),20.5 µM (inactive),26.4 µM (inactive),16.9 µM (inactive),13.4 µM (inactive),70.8 µM (inactive),61.4 µM (inactive),42.9 µM (inactive),19.1 µM (inactive),20.6 µM (inactive),32.8 µM (inactive),31.1 µM (inactive),37.2 µM (inactive),16 µM (inactive)
